Measured values reported in patent publication US10039282B2, “Six-membered C—N-bonded aryl sulphide and aryl sulphoxide derivatives as pesticides” (BAYER CROPSCIENCE AKTIENGESELLSCHAFT, priority 2013, dated 2018).
Read-outs that look alike come from different tables or passages of the source.

Key:
Tetranychus urticae = Tetranychus urticae spray test, OP-resistant (bean leaf discs); assay type: in vivo; details: 500 g/ha, after 6 days
Protocol: 4. Tetranychus urticae—Spray Test, OP-Resistant
Solvent: 78.0 parts by weight of acetone
• 1.5 parts by weight of dimethylformamide Emulsifier: alkylaryl polyglycol ether
To produce further test concentrations, the preparation is diluted with emulsifier-containing water.
After 6 days, the efficacy in % is determined. 100% means that all the spider mites have been killed; 0% means that none of the spider mites have been killed.

[1] = log P by reversed-phase HPLC analogously to OECD Guideline 117; assay type: physicochemical; details: for logP (HCOOH): pH 2.7; for logP (neutral): pH 7.8
Protocol: The log P values were determined analogously to OECD Guideline 117 (EC Directive 92/69/EEC) by HPLC (high-performance liquid chromatography) using reversed-phase columns (C 18), by the following methods:
[a] The LC-MS determination in the acidic range is effected at pH 2.7 with 0.1% aqueous formic acid and acetonitrile (contains 0.1% formic acid) as eluents; linear gradient from 10% acetonitrile to 95% acetonitrile. log P^[…] is also referred to as log P(HCOOH). [b] LC-MS determination in the neutral range is effected at pH 7.8 with 0.001 molar aqueous ammonium hydrogencarbonate solution and acetonitrile as eluents; linear gradient from 10% acetonitrile to 95% acetonitrile. log P^[…] is also referred to as log P(neutral).
Calibration is effected with solutions of a homologous series of unbranched alkan-2-ones (having 3 to 16 carbon atoms) with known log P values (log P values determined on the basis of the retention times by linear interpolation between two successive alkanones).

Boophilus microplus = Boophilus microplus injection test; assay type: in vivo; details: 20 μg/animal, assessed after 7 days
Protocol: 1. Boophilus microplus—Injection Test
Solvent: dimethyl sulphoxide
To produce an appropriate active compound formulation, 10 mg of active compound are mixed with 0.5 ml of solvent and the concentrate is diluted with solvent to the desired concentration.
1 μl of the active compound solution is injected into the abdomen of 5 engorged adult female cattle ticks (Boophilus microplus). The animals are transferred into dishes and kept in a climate-controlled room.
The efficacy is assessed after 7 days by laying of fertile eggs. Eggs which are not visibly fertile are stored in a climate-controlled cabinet until the larvae hatch after about 42 days. An efficacy of 100% means that none of the ticks has laid any fertile eggs; 0% means that all the eggs are fertile.

[2] = reversed-phase C18 HPLC column, acidic range, pH 2.7, 0.1% aqueous formic acid/acetonitrile, read-out: logP (HCOOH)
[3] = reversed-phase C18 HPLC column, neutral range, pH 7.8, 0.001 molar aqueous ammonium hydrogencarbonate/acetonitrile, read-out: logP (neutral)
[4] = acidic range, pH 2.7, 0.1% aqueous formic acid/acetonitrile, read-out: logP (HCOOH)

Structure (SMILES) | efficacy (spider mites killed) (Tetranychus urticae) [%] | logP (HCOOH) [1] | further results
Cc1cc(F)c(-n2cnc(C(C)C)cc2=O)cc1[S+]([O-])CC(F)(F)F (racemic) [Example 52] | 100 |  | 
NC(=CC(=O)Nc1cc(SCC(F)(F)F)c(Br)cc1F)C(F)(F)F [IIa-5] |  | 3.88 | logP (neutral) [1]: 3.78
Cc1ccc(-n2cnc(C(F)(F)F)cc2=O)cc1[S+]([O-])CC(F)(F)F (racemic) [Example 50] | 100 |  | efficacy (no fertile eggs laid) (Boophilus microplus): 100%
Cc1cc(C)c(SCC(F)(F)F)cc1NC(=O)/C=C(\N)C(F)(F)F [IIa-2, 3-Amino-N-[2,4-dimethyl-5-(2,2,2-trifluoroethylsulphanyl)phenyl]-4,4,4-trilluorobut-2-enamide] |  |  | chromatographic logP [1, 2]: 3.63; chromatographic logP [1, 3]: 3.61
O=c1cc(C(F)(F)F)ncn1-c1cc(SCC(F)(F)F)c(Cl)cc1F [Example 16] | 100 |  | 
NC(=CC(=O)Nc1cc(SCC(F)(F)F)c(Cl)cc1Cl)C(F)(F)F [IIa-3] |  | 4.24 | logP (neutral) [1]: 4.13
Cc1cc(C)c([S+]([O-])CC(F)(F)F)cc1-n1c(C)nc(C(F)(F)F)cc1=O (racemic) [Example 14] | 100 |  | 
O=C(C=C(O)C(F)(F)F)Nc1cc(SCC(F)(F)F)c(Br)cc1F [XXXI-5] |  | 2.93 | 
Cc1cc(F)c(-n2cnc(C(C)C)cc2=O)cc1SCC(F)(F)F [Example 31] | 100 |  | 
Cc1cc(Cl)c(NC(=O)C=C(O)C(F)(F)F)cc1SCC(F)(F)F [XXXI-8] |  | 3.01 | logP (neutral) [1]: 1.44
Cc1cc(F)c(-n2cnc(C(C)(F)F)cc2=O)cc1SCC(F)(F)F [Example 22] | 100 |  | efficacy (no fertile eggs laid) (Boophilus microplus): 100%
CCc1cc(=O)n(-c2cc([S+]([O-])CC(F)(F)F)c(C)cc2C)cn1 (racemic) [Example 24] | 90 |  | 
Cc1ccc(NC(=O)C=C(O)C(F)(F)F)cc1SCC(F)(F)F [XXXI-6] |  | 2.80 | 
O=C(C=C(O)C(F)(F)F)Nc1cc(SCC(F)(F)F)c(Cl)cc1F [XXXI-4] |  | 2.86 | logP (neutral) [1]: 1.45
Cc1cc(C)c(-n2cnc(C3CC3)cc2=O)cc1SCC(F)(F)F [Example 23] | 100 |  | 
Cc1cc(C)c(SCC(F)(F)F)cc1NC(=O)C=C(N)C(F)F [IIa-10] |  | 3.24 | logP (neutral) [1]: 3.15
Cc1cc(=O)n(-c2cc(SCC(F)(F)F)c(C)cc2C)cn1 [Example 20] | 100 |  | 
O=c1cc(C(F)(F)F)ncn1-c1ccc(Cl)c(SCC(F)(F)F)c1 [Example 54] | 100 |  | 
Cc1cc(F)c(-n2c(C)nc(C(F)(F)F)cc2=O)cc1SCC(F)(F)F [Example 8] | 100 |  | 

Structure (SMILES) | efficacy (spider mites killed) (Tetranychus urticae) [%] | logP (HCOOH) [1] | further results
Cc1cc(F)c(-n2cnc(C3CC3)cc2=O)cc1[S+]([O-])CC(F)(F)F (racemic) [Example 7] | 100 |  | 
O=C(C=C(O)C(F)(F)F)Nc1ccc(Cl)c(SCC(F)(F)F)c1 [XXXI-7] |  | 2.84 | 
CCc1cc(=O)n(-c2cc([S+]([O-])CC(F)(F)F)c(C)cc2F)cn1 (racemic) [Example 10] | 100 |  | 
CCc1cc(=O)n(-c2ccc(C)c([S+]([O-])CC(F)(F)F)c2)cn1 (racemic) [Example 17] | 100 |  | 
Cc1cc(C)c(SCC(F)(F)F)cc1NC(=O)/C=C(\O)C(F)(F)F [XXXI-2, N-[2,4-Dimethyl-5-(2,2,2-trifluoroethylsulphanyl)phenyl]-4,4,4-trifluoro-3-hydroxybut-2-enamide] |  |  | chromatographic logP [1, 4]: 2.87
Cc1cc(Cl)c(-n2cnc(C(F)(F)F)cc2=O)cc1SCC(F)(F)F [Example 59] | 100 |  | efficacy (no fertile eggs laid) (Boophilus microplus): 100%
Cc1cc(C)c(SCC(F)(F)F)cc1NC(=O)C=C(O)C(F)F [XXXI-10] |  | 2.53 | 
O=c1cc(C(F)(F)F)ncn1-c1cc([S+]([O-])CC(F)(F)F)c(Cl)cc1F (racemic) [Example 29] | 100 |  | 
O=C(C=C(O)C(F)(F)F)Nc1cc(SCC(F)(F)F)c(Cl)cc1Cl [XXXI-3] |  | 3.13 | 
Cc1cc(F)c(NC(=O)C=C(O)C(C)(F)F)cc1SCC(F)(F)F [XXXI-11] |  | 2.72 | 
Cc1cc(F)c(NC(=O)C=C(N)C(F)F)cc1SCC(F)(F)F [IIa-9] |  | 3.23 | logP (neutral) [1]: 3.21
CCc1cc(=O)n(-c2cc(SCC(F)(F)F)c(C)cc2C)cn1 [Example 39] | 100 |  | 
Cc1cc(C)c(-n2cnc(C(C)(F)F)cc2=O)cc1SCC(F)(F)F [Example 51] | 100 |  | 
Cc1cc(F)c(NC(=O)C=C(O)C(F)F)cc1SCC(F)(F)F [XXXI-9] |  | 2.47 | 
Cc1cc(F)c(-n2cnc(C(F)(F)F)cc2=O)cc1SCC(F)(F)F [Example 1, 3-{2-Fluoro-4-methyl-5-[(2,2,2-trifluoroethyl)sulphanyl]phenyl}-6-(trifluoromethyl)pyrimidin-4(3H)-one] | 100 |  | chromatographic logP [1, 2]: 3.42; chromatographic logP [1, 3]: 3.4
CCc1cc(=O)n(-c2cc(SCC(F)(F)F)c(C)cc2F)cn1 [Example 57] | 100 |  | 
Cc1cc(C)c(-n2cnc(C(F)(F)C(F)(F)F)cc2=O)cc1SCC(F)(F)F [Example 36] | 100 |  | 
Cc1cc(C)c(SCC(F)(F)F)cc1NC(=O)C=C(O)C(F)(F)C(F)(F)F [XXXI-14] |  |  | logP (neutral) [1]: 1.63
Cc1cc(F)c(-n2cnc(C(F)F)cc2=O)cc1SCC(F)(F)F [Example 32] | 100 |  | 

Structure (SMILES) | efficacy (spider mites killed) (Tetranychus urticae) [%] | logP (HCOOH) [1] | further results
Cc1cc(F)c(NC(=O)/C=C(\O)C(F)(F)F)cc1SCC(F)(F)F [XXXI-1, 4,4,4-Trifluoro-N-{2-fluoro-4-methyl-5-[(2,2,2-trifluoroethyl)sulphanyl]phenyl}-3-hydroxybut-2-enamide] |  |  | chromatographic logP [1, 4]: 2.77; chromatographic logP [1, 3]: 1.43
O=c1cc(C(F)(F)F)ncn1-c1cc([S+]([O-])CC(F)(F)F)c(Cl)cc1Cl (racemic) [Example 4] | 100 |  | efficacy (no fertile eggs laid) (Boophilus microplus): 100%
Cc1cc(F)c(NC(=O)C=C(N)C(C)(F)F)cc1SCC(F)(F)F [IIa-11] |  | 3.55 | logP (neutral) [1]: 3.49
Cc1cc(F)c(-n2c(C)nc(C(F)(F)F)cc2=O)cc1[S+]([O-])CC(F)(F)F (racemic) [Example 19] | 100 |  | 
Cc1cc(F)c(-n2cnc(C3CC3)cc2=O)cc1SCC(F)(F)F [Example 37] | 100 |  | 
Cc1cc(C)c([S+]([O-])CC(F)(F)F)cc1-n1cnc(C2CC2)cc1=O (racemic) [Example 35] | 90 |  | 
Cc1cc(Cl)c(NC(=O)C=C(N)C(F)(F)F)cc1SCC(F)(F)F [IIa-8] |  | 4.05 | logP (neutral) [1]: 3.99
CCc1cc(=O)n(-c2ccc(C)c(SCC(F)(F)F)c2)cn1 [Example 43] | 90 |  | 
NC(=CC(=O)Nc1ccc(Cl)c(SCC(F)(F)F)c1)C(F)(F)F [IIa-7] |  | 3.66 | logP (neutral) [1]: 3.65
Cc1ccc(-n2cnc(C(F)(F)F)cc2=O)cc1SCC(F)(F)F [Example 47] | 100 |  | efficacy (no fertile eggs laid) (Boophilus microplus): 100%
Cc1ccc(-n2cnccc2=O)cc1[S+]([O-])CC(F)(F)F (racemic) [Example 28] | 90 |  | 
Cc1cc(C)c(SCC(F)(F)F)cc1NC(=O)C=C(N)C(C)(F)F [IIa-12] |  | 3.52 | logP (neutral) [1]: 3.40
O=c1cc(C(F)(F)F)ncn1-c1cc(SCC(F)(F)F)c(Br)cc1F [Example 15] | 100 |  | 
Cc1cc(C)c(-n2cnc(C)c(C)c2=O)cc1SCC(F)(F)F [Example 13] | 100 |  | 
Cc1cc(F)c(NC(=O)/C=C(\N)C(F)(F)F)cc1SCC(F)(F)F [IIa-1, 3-Amino-4,4,4-trifluoro-N-{2-fluoro-4-methyl-5-[(2,2,2-trifluoroethyl)sulphanyl]phenyl}but-2-enamide] |  |  | chromatographic logP [1, 2]: 3.61; chromatographic logP [1, 3]: 3.6
Cc1cc(C)c([S+]([O-])CC(F)(F)F)cc1-n1cnc(C)c(C)c1=O (racemic) [Example 48] | 90 |  | 
NC(=CC(=O)Nc1cc(SCC(F)(F)F)c(Cl)cc1F)C(F)(F)F [IIa-4] |  | 3.83 | logP (neutral) [1]: 3.73
Cc1ccc(NC(=O)C=C(N)C(F)(F)F)cc1SCC(F)(F)F [IIa-6] |  | 3.58 | logP (neutral) [1]: 3.49
